From patent US9328099B2, “Cyanomethylpyrazole carboxamides as janus kinase inhibitors” (Merck Sharp & Dohme Corp., priority 2011, dated 2016)

Tests used:
JAK2 = JAK2 (Homo sapiens (Human), UniProt O60674); test: Jak Biochemical HTRF Assay, JAK2; details: HTRF biochemical assay, GST-tagged catalytic domain; top concentration tested […]
From the text: (§1) Jak Biochemical HTRF Assay Protocol
(§2) Subsequent reagent additions employed an Agilent Bravo.

JAK1 = JAK1 (Homo sapiens (Human), UniProt P23458); test: Jak Biochemical HTRF Assay, JAK1; details: HTRF biochemical assay, GST-tagged catalytic domain; top concentration tested […]; read-out: JAK1 IC50
Sequence of JAK1 (P23458 875-1153): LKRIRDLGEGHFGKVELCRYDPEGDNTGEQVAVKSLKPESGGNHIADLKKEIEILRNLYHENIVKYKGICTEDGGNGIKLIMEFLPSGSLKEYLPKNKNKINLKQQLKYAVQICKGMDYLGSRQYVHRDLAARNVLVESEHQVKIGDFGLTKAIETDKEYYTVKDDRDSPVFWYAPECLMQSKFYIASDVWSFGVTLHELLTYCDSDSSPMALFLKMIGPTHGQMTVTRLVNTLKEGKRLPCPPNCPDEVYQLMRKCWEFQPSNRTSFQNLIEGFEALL
From the text: as §1, §2

Sequence of JAK2 (O60674 849-1124): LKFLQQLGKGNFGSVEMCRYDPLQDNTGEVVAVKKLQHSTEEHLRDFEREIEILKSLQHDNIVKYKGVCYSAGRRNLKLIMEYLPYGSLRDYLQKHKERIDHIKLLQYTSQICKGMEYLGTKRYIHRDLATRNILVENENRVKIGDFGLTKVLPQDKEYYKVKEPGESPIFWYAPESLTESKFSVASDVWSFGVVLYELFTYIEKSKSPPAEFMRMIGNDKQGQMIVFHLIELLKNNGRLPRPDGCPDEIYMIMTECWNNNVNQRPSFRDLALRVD

IC50 (JAK2) [nM] | IC50 (JAK1) [nM] | Structure (SMILES)
105 | 4 | CN(c1ccccc1)C1CCC(CC#N)(n2cc(C(N)=O)c(Nc3ccnc(F)c3)n2)CC1 (stereo not drawn) [Example 40-34, Cis or trans 1-{1-(cyanomethyl)-4-[methyl(phenyl)amino]cyclohexyl}-3-[(2-fluoropyridin-4-yl)amino]-1H-pyrazole-4-carboxamide]
4 | 0.07 | N#CCC1(n2cc(C(N)=O)c(Nc3ccnc(F)c3)n2)CCC(Nc2cccc(Cl)c2)CC1 (stereo not drawn) [Example 40-29, Cis or trans 1-{4-[(3-chlorophenyl)amino]-1-(cyanomethyl)cyclohexyl}-3-[(2-fluoropyridin-4-yl)amino]-1H-pyrazole-4-carboxamide]
2 | 0.6 | N#CCC1(n2cc(C(N)=O)c(Nc3ccccc3)n2)CCN(S(=O)(=O)c2cccc(Cl)c2)CC1 [Example 37-11, 1-{1-[(3-chlorophenyl)sulfonyl]-4-(cyanomethyl)piperidin-4-yl}-3-(phenylamino)-1H-pyrazole-4-carboxamide]
1 | 0.3 | N#CCC1(n2cc(C(N)=O)c(Nc3ccccc3)n2)CCN(S(=O)(=O)c2ccccc2)CC1 [Example 37-6, 1-[4-(cyanomethyl)-1-(phenylsulfonyl)piperidin-4-yl]-3-(phenylamino)-1H-pyrazole-4-carboxamide]
20 | 0.6 | N#CCC1(n2cc(C(N)=O)c(Nc3ccc(F)cc3)n2)CCC(Nc2ccc(Cl)cc2)CC1 (stereo not drawn) [Example 40-52, Cis or trans 1-{4-[(4-chlorophenyl)amino]-1-(cyanomethyl)cyclohexyl}-3-[(4-fluorophenyl)amino]-1H-pyrazole-4-carboxamide]
153 | 0.8 | N#CCC1(n2cc(C(N)=O)c(Nc3ccnc(F)c3)n2)CCC(NCC2CCCCC2)CC1 (stereo not drawn) [Example 41-8, Trans 1-{1-(cyanomethyl)-4-[(cyclohexylmethyl)amino]cyclohexyl}-3-[(2-fluoropyridin-4-yl)amino]-1H-pyrazole-4-carboxamide]
9 | 2 | Cn1cnc(S(=O)(=O)N2CCC(CC#N)(n3cc(C(N)=O)c(Nc4ccccc4)n3)CC2)c1 [Example 37-7, 1-{4-(cyanomethyl)-1-[(1-methyl-1H-imidazol-4-yl)sulfonyl]piperidin-4-yl}-3-(phenylamino)-1H-pyrazole-4-carboxamide]
> 1500 | 234 | COC1CN(C2CCC(CC#N)(n3cc(C(N)=O)c(Nc4ccnc(F)c4)n3)CC2)C1 (stereo not drawn) [Example 40-94, Cis or trans 1-[1-(cyanomethyl)-4-(3-methoxyazetidin-1-yl)cyclohexyl]-3-[(2-fluoropyridin-4-yl)amino]-1H-pyrazole-4-carboxamide]
1030 | 26 | N#CCC1(n2cc(C(N)=O)c(Nc3ccnc(F)c3)n2)CCC(NCc2cccc(F)c2)CC1 (stereo not drawn) [Example 41-24, Cis or trans 1-{1-(cyanomethyl)-4-[(3-fluorobenzyl)amino]cyclohexyl}-3-[(2-fluoropyridin-4-yl)amino]-1H-pyrazole-4-carboxamide]
7 | 0.2 | N#CCC1(n2cc(C(N)=O)c(Nc3ccc(F)cc3)n2)CCC(Nc2cccnc2)CC1 (stereo not drawn) [Example 40-75, Cis or trans 1-[1-(cyanomethyl)-4-(pyridin-3-ylamino)cyclohexyl]-3-[(4-fluorophenyl)amino]-1H-pyrazole-4-carboxamide]

Second part, the compound before the results:

Structure (SMILES) | IC50 (JAK2) [nM] | IC50 (JAK1) [nM]
N#CCC1(n2cc(C(N)=O)c(Nc3ccnc(F)c3)n2)CCN(C(=O)Cn2ccnc2)CC1 [Example 34-52, 1-[4-(cyanomethyl)-1-(1H-imidazol-1-ylacetyl)piperidin-4-yl]-3-[(2-fluoropyridin-4-yl)amino]-1H-pyrazole-4-carboxamide] | 154 | 4
N#CCC1(n2cc(C(N)=O)c(Nc3ccnc(F)c3)n2)CCN(Cc2ncco2)CC1 [Example 22-28, 1-[4-(cyanomethyl)-1-(1,3-oxazol-2-ylmethyl)piperidin-4-yl]-3-[(2-fluoropyridin-4-yl)amino]-1H-pyrazole-4-carboxamide] | 73 | 3
Cc1cccc(Nc2nn(C3(CC#N)CCN(C(=O)OC(C)(C)C)CC3)cc2C(N)=O)n1 [Example 13-2, tert-butyl 4-(4-carbamoyl-3-(6-methylpyridin-2-ylamino)-1H-pyrazol-1-yl)-4-(cyanomethyl)piperidine-1-carboxylate] | 1010 | 13
N#CCC1(n2cc(C(N)=O)c(Nc3ccc(F)cc3)n2)CCN(c2ccc(OC(F)F)cn2)CC1 [Example 3-19, 1-{4-(cyanomethyl)-1-[5-(difluoromethoxy)pyridin-2-yl]piperidin-4-yl}-3-[(4-fluorophenyl)amino]-1H-pyrazole-4-carboxamide] | 18 | 0.6
CC(C)(C)OC(=O)N1CCC(CC#N)(n2cc(C(N)=O)c(Nc3ccc(C#N)cc3)n2)CC1 [Example 9-5, tert-butyl 4-{4-carbamoyl-3-[(4-cyanophenyl)amino]-1H-pyrazol-1-yl}-4-(cyanomethyl)piperidine-1-carboxylate] | 6 | 0.2
N#CCC1(n2cc(C(N)=O)c(Nc3ccnc(F)c3)n2)CCN(Cc2ccn[nH]2)CC1 [Example 22-13, 1-[4-(cyanomethyl)-1-(1H-pyrazol-5-ylmethyl)piperidin-4-yl]-3-[(2-fluoropyridin-4-yl)amino]-1H-pyrazole-4-carboxamide] | 39 | 3
COc1cc(F)cc(N2CCC(CC#N)(n3cc(C(N)=O)c(Nc4ccc(F)cc4)n3)CC2)c1 [Example 3-12, 1-[4-(cyanomethyl)-1-(3-fluoro-5-methoxyphenyl)piperidin-4-yl]-3-[(4-fluorophenyl)amino]-1H-pyrazole-4-carboxamide] | 40 | 2
N#CCC1(n2cc(C(N)=O)c(Nc3ccc(F)cc3)n2)CCC(NCCF)CC1 (stereo not drawn) [Example 40-79, Cis or trans 1-{1-(cyanomethyl)-4-[(2-fluoroethyl)amino]cyclohexyl}-3-[(4-fluorophenyl)amino]-1H-pyrazole-4-carboxamide] | 133 | 8
N#CCC1(n2cc(C(N)=O)c(Nc3ccccc3)n2)CCN(C(=O)c2ccc(Cl)cc2)CC1 [Example 34-19, 1-{1-[(4-chlorophenyl)carbonyl]-4-(cyanomethyl)piperidin-4-yl}-3-(phenylamino)-1H-pyrazole-4-carboxamide] | 184 | 11
CS(=O)(=O)c1ccc(Nc2nn([C@]3(CC#N)C[C@@H](C#N)C3)cc2C(N)=O)cc1 [Example 2-22, 1-((1r,3r)-3-cyano-1-(cyanomethyl)cyclobutyl)-3-((4-(methylsulfonyl)phenyl)amino)-1H-pyrazole-4-carboxamide] | 127 | 13
CCS(=O)(=O)N1CC(CC#N)(n2cc(C(N)=O)c(Nc3ccccc3)n2)C1 [Example 2-12, 1-[3-(cyanomethyl)-1-(ethylsulfonyl)azetidin-3-yl]-3-(phenylamino)-1H-pyrazole-4-carboxamide] | 404 | 115
N#CCC1(n2cc(C(N)=O)c(Nc3ccnc(F)c3)n2)CCN(Cc2cccnc2)CC1 [Example 22-2, 1-[4-(cyanomethyl)-1-(pyridin-3-ylmethyl)piperidin-4-yl]-3-[(2-fluoropyridin-4-yl)amino]-1H-pyrazole-4-carboxamide] | 5 | 0.2
